Source: patent US20050233942A1, “Oxygenated dibenzo-alpha-pyrone chromoproteins” (priority 2004, published 2005)
Converted amounts (≈) assume the structure as drawn.

Experiments:
[1] = test system: Fe-ADP-ascorbate induced lipid peroxidation (LPO) in rat brain; assay: Inhibition of Fe-ADP-ascorbate induced lipid peroxidation (LPO) in rat brain homogenate; type: biochemical, Albino rats (Sprague Dawley strain); conditions: 37° C., 30 minutes
Description: Inhibition of Fe-ADP-ascorbate induced lipid peroxidation (LPO) in rat brain by DBP and DCPs
Albino rats (Sprague Dawley strain) were sacrificed by cervical dislocation and decapitation. Brains were dissected out and 10% w/v homogenate was prepared in 0.15 M KCl. The brain homogenate was centrifuged at 1500 rpm for 10 minutes and the supernatant was used for the study. The incubation mixture contained in a final volume of 1 ml., brain homogenate (500 μl), distilled water (100 μl) or test compounds dissolved in solvents at different concentrations (10 to 100 μg/ml of the final volume). Peroxidation was initiated by adding FeCl3 (100 μM), ADP (1 mM) and ascorbate (100 μM) to give the final concentration stated. After incubating at 37° C. for 30 minutes, the reaction was stopped by adding acetic acid buffer (1.5 ml, pH 3.5) and thiobarbituric acid solution (1.5 ml, pH 7.4) to 1 ml of LPO mixture. The reaction mixture was heated at 85° C. for 30 minutes, cooled, centrifuged (2000 rpm for 10 minutes) and the absorbance of the supernatant was measured at 532 nm. IC50 values were calculated in the usual way by plotting the concentration of the test compounds versus percent inhibition of LPO.

[2] = test system: chronic stress (CS) induced gastric ulceration; assay: Chronic stress (CS) induced gastric ulceration in albino rats; type: in vivo, CF strain albino rats; conditions: 14 days
Description: A comparative study of shilajit bioactive constituents from EPA, DHA, DBPs and DCPs, was carried out to determine their adaptogenic potency against chronic stress (CS) in albino rats. It is now increasingly becoming evident that CS of a mild but unpredictable nature which the animal is unable to cope with (inescapable stress), is clinically more relevant than acute stress even when the latter is severe in nature. It is believed that chronic, unpredictable, and inescapable stress resembles the situation faced by an individual that ultimately results in chronic stress-induced physiological perturbation and disease. Animals The investigation was carried out on CF strain albino rats, of either sex (140-180 g), housed in colony cages at an ambient temperature of 25±2° C., with a 12 h. light/12 h. dark cycle. […] The procedure of Armario et al (1993) was followed. Briefly, rats were randomly assigned to control or stress groups. Those assigned to the stress groups were subjected to 1 h foot shock, through a grid floor, every day for 14 days. The duration of each shock (2 mA) and the intervals between the shocks were randomly programmed between 3-5 sec. and 10-110 sec., respectively, to make the stress unpredictable. The shock chamber had high walls which made escape from shock impossible. EPA (Aldrich, Milw.), DHA (Sigma), DBPs and DCPs were separately suspended/dissolved in 0.3% carboxymethylcellulose(CMC) in distilled water and administered orally (p.o.), for 14 days, starting on day 1, 60 min prior to electroshock. Control animals received only the vehicle in either unstressed or the stressed rats for the same period in a volume of 2.5 ml/kg, p.o. Estimations were conducted on day 14, one hour after the last stress procedure and two hours after the last test compound or vehicle was administered. Gastric ulcerations (Bhattacharya et al., 1987). On day 14, rats were killed by decapitation the stomach was split open along the greater curvature and the numbers of discrete ulcers were noted. […] Thereafter, the pooled ulcer score was calculated according to the method of Bhattacharya et al. (1987).

[3] = test system: adrenal gland ascorbic acid and corticosterone concentrations and plasma corticosterone level; assay: CS induced alteration of adrenal gland ascorbic acid and corticosterone and plasma corticosterone (adrenocorticoid activity); type: in vivo, CF strain albino rats; conditions: 5 mg/kg p.o. + CS
Description: Animals The investigation was carried out on CF strain albino rats, of either sex (140-180 g), housed in colony cages at an ambient temperature of 25±2° C., with a 12 h. light/12 h. dark cycle. Experiments were conducted between 0900 and 1400 hrs. • EPA, Eicosapentaenoic acid • DHA, Docosahexaenoic acid • DBPs, 1:1 mixture of 3-hydroxy- and 3,8-dihydroxydibenzo-alpha-pyrone • DCPs, DBP-chromoproteins
The procedure of Armario et al (1993) was followed. Briefly, rats were randomly assigned to control or stress groups. Those assigned to the stress groups were subjected to 1 h foot shock, through a grid floor, every day for 14 days. The duration of each shock (2 mA) and the intervals between the shocks were randomly programmed between 3-5 sec. and 10-110 sec., respectively, to make the stress unpredictable. The shock chamber had high walls which made escape from shock impossible.
EPA (Aldrich, Milw.), DHA (Sigma), DBPs and DCPs were separately suspended/dissolved in 0.3% carboxymethylcellulose(CMC) in distilled water and administered orally (p.o.), for 14 days, starting on day 1, 60 min prior to electroshock. […]
Adrenal gland ascorbic acid (Zenker and Bernstein, 1958) and corticosterone concentrations (Selye, 1936), and plasma corticosterone levels (Selye, 1936) were determined to substantiate the validity and intensity of the stress procedure adopted.

Row | IC50 (LPO) [1] | SMILES | Ulcer incidence % ([2]; 5 mg/kg p.o.) | Ulcer incidence % ([2]; 10 mg/kg p.o.) | Adrenal corticosterone [3] | Plasma corticosterone [3]
1 | 30 µg/mL (≈ 131 µM) | O=c1oc2cc(O)ccc2c2ccc(O)cc12 [3,8-Dihydroxydibenzo-alpha-pyrone] |  |  |  | 
2 |  | CC/C=C\C/C=C\C/C=C\C/C=C\C/C=C\CCCC(=O)O [EPA, Eicosapentaenoic acid] | 70% | 60% | 2.3 ± 0.8 μg/100 mg | 22.1 ± 2.9 µg/dL
3 |  | CC/C=C\C/C=C\C/C=C\C/C=C\C/C=C\C/C=C\CCC(=O)O [DHA, Docosahexaenoic acid] | 70% | 60% |  | 
4 | 70 µg/mL (≈ 397 µM) | O=C1O[C@H]([C@@H](O)CO)C(O)=C1O [Ascorbic acid] |  |  |  | 
5 | 56 µg/mL | CC(=O)Oc1c(C)c(C)c2c(c1C)CCC(C)(CCC[C@H](C)CCC[C@H](C)CCCC(C)C)O2 (stereo partly drawn) [Vitamin E acetate] |  |  |  | 
